In US20120100990A1, “4 -AMINOPICOLINATES AND THEIR USE AS HERBICIDES” (SYNGENTA CROP PROTECTION LLC, priority 2009, published 2012):

Legend:
Type in all cases: in vivo
[1] = system: Alopecurus myosuroides (ALOMY); assay: Pre-emergence biological efficacy, glasshouse pot test; conditions: 312 h, 1,000 g/ha, evaluated after 13 days, 100=total damage, 0=no damage, read-out: Percentage damage caused to weed species, pre-emergence, ALOMY
Procedure, shortened: (§1)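 Plants treated pre-emergence received 1000 or 250 g/ha in an acetone/water (50:50) vehicle containing 0.5% Tween 20 and were kept in a glasshouse at 24/16 °C with 14 h light. Injury was rated on day 13, where 100 meant total damage.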

[2] = system: Amaranthus retroflexus (AMARE); assay: as above; conditions: 312 h, 1,000 g/ha, evaluated after 13 days, 100=total damage, 0=no damage, read-out: Percentage damage caused to weed species, pre-emergence, AMARE
Procedure, shortened: as §1

[3] = system: Echinochloa crus-galli (ECHCG); assay: as above; conditions: 312 h, 1,000 g/ha, evaluated after 13 days, 100=total damage, 0=no damage, read-out: Percentage damage caused to weed species, pre-emergence, ECHCG
Procedure, shortened: as §1

[4] = system: Ipomea hederaceae (IPOHE); assay: as above; conditions: Ipomoea hederacea, 312 h, 1,000 g/ha, evaluated after 13 days, 100=total damage, 0=no damage, read-out: Percentage damage caused to weed species, pre-emergence, IPOHE
Procedure, shortened: as §1

[5] = system: Setaria faberi (SETFA); assay: as above; conditions: 312 h, 1,000 g/ha, evaluated after 13 days, 100=total damage, 0=no damage, read-out: Percentage damage caused to weed species, pre-emergence, SETFA
Procedure, shortened: as §1

[6] = system: Solanum nigrum (SOLNI); assay: as above; conditions: 312 h, 1,000 g/ha, evaluated after 13 days, 100=total damage, 0=no damage, read-out: Percentage damage caused to weed species, pre-emergence, SOLNI
Procedure, shortened: as §1

[7] = system: Alopecurus myosuroides (ALOMY); assay: Post-emergence biological efficacy, glasshouse pot test; conditions: 312 h, 1,000 g/ha, evaluated after 13 days, 100=total damage, 0=no damage, read-out: Percentage damage caused to weed species, post-emergence, ALOMY
Procedure, shortened: (§2)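 Weeds grown 8 days in glasshouse pots (24/16 °C, 14 h light, 65% humidity) were sprayed with compound in acetone/water plus 0.5% Tween 20 at 1000 or 250 g/ha. Damage was scored 13 days later on a 0–100 scale (100 = total damage).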

[8] = system: Amaranthus retroflexus (AMARE); assay: as above; conditions: 312 h, 1,000 g/ha, evaluated after 13 days, 100=total damage, 0=no damage, read-out: Percentage damage caused to weed species, post-emergence, AMARE
Procedure, shortened: as §2

[9] = system: Echinochloa crus-galli (ECHCG); assay: as above; conditions: 312 h, 1,000 g/ha, evaluated after 13 days, 100=total damage, 0=no damage, read-out: Percentage damage caused to weed species, post-emergence, ECHCG
Procedure, shortened: as §2

[10] = system: Ipomea hederaceae (IPOHE); assay: as above; conditions: Ipomoea hederacea, 312 h, 1,000 g/ha, evaluated after 13 days, 100=total damage, 0=no damage, read-out: Percentage damage caused to weed species, post-emergence, IPOHE
Procedure, shortened: as §2

[11] = system: Setaria faberi (SETFA); assay: as above; conditions: 312 h, 1,000 g/ha, evaluated after 13 days, 100=total damage, 0=no damage, read-out: Percentage damage caused to weed species, post-emergence, SETFA
Procedure, shortened: as §2

[12] = system: Solanum nigrum (SOLNI); assay: as above; conditions: 312 h, 1,000 g/ha, evaluated after 13 days, 100=total damage, 0=no damage, read-out: Percentage damage caused to weed species, post-emergence, SOLNI
Procedure, shortened: as §2

Row | SMILES | pest or weed control at 1000 g/ha [1] [%] | pest or weed control at 1000 g/ha [2] [%] | pest or weed control at 1000 g/ha [3] [%] | pest or weed control at 1000 g/ha [4] [%] | pest or weed control at 1000 g/ha [5] [%] | pest or weed control at 1000 g/ha [6] [%] | pest or weed control at 1000 g/ha [7] [%] | pest or weed control at 1000 g/ha [8] [%] | pest or weed control at 1000 g/ha [9] [%] | pest or weed control at 1000 g/ha [10] [%] | pest or weed control at 1000 g/ha [11] [%] | pest or weed control at 1000 g/ha [12] [%]
1 | COC(=O)c1nc(Cl)cc(NCc2ccccc2[N+](=O)[O-])c1Br [Compound 15-17, 3-Bromo-6-chloro-4-[(2-nitrophenylmethyl)-amino]-pyridine-2-carboxylic acid methyl ester] | 40 | 100 | 20 | 90 | 60 | 90 | 50 | 80 | 30 | 80 | 80 | 90
2 | COC(=O)c1nc(Cl)cc(NCc2ccc(Cl)cc2)c1Cl [Compound 5-2, 4-[(4-Chlorophenyl-methyl)-amino]-3,6-dichloro-pyridine-2-carboxylic acid methyl ester] | 20 | 100 | 10 | 90 | 50 | 100 | 50 | 100 | 50 | 70 | 70 | 100
3 | COC(=O)c1nc(-c2ccc(Cl)c(N(C)C)c2F)cc(NCc2ccco2)c1Cl [Compound 26-245, 3-Chloro-6-(4-chloro-3-dimethylamino-2-fluoro-phenyl)-4-[(furan-2-ylmethyl)-amino]-pyridine-2-carboxylic acid methyl ester] | 10 | 100 | 30 | 60 | 30 | 60 | 40 | 100 | 50 | 60 | 60 | 90
4 | COC(=O)c1nc(C2CC2)cc(NCc2ccco2)c1Cl [Compound 26-83, 3-chloro-6-cyclopropyl-4-[(furan-2-ylmethyl)-amino]-pyridine-2-carboxylic acid methyl ester] | 40 | 100 | 20 | 100 | 20 | 100 | 0 | 100 | 0 | 100 | 0 | 90
5 | COC(=O)c1nc(Cl)c(F)c(NCc2ccccc2[N+](=O)[O-])c1C [Compound 15-31, 6-Chloro-5-fluoro-3-methyl-4-[(2-nitrophenyl-methyl)-amino]-pyridine-2-carboxylic acid methyl ester] | 20 | 100 | 20 | 70 | 20 | 90 | 20 | 100 | 50 | 70 | 80 | 100
6 | COC(=O)c1nc(Cl)cc(NCc2ccco2)c1C [Compound 26-19, 6-chloro-4-[(furan-2-ylmethyl)-amino]-3-methyl-pyridine-2-carboxylic acid methyl ester] | 70 | 100 | 0 | 40 | 70 | 100 | 60 | 100 | 30 | 40 | 70 | 90
7 | C=Cc1c(C(=O)OC)nc(Cl)c(Cl)c1NCc1ncccc1Cl [Compound 32-39, 4-[(3-Chloro-pyridin-2-ylmethyl)-amino]-5,6-dichloro-3-ethenyl-pyridine-2-carboxylic acid methyl ester] | 0 | 100 | 0 | 50 | 0 | 60 | 10 | 100 | 20 | 40 | 50 | 90
8 | C=Cc1c(NCc2ccco2)cc(Cl)nc1C(=O)O [Compound 26-11, 6-chloro-3-ethenyl-4-[(furan-2-ylmethyl)-amino]-pyridine-2-carboxylic acid] | 100 | 100 | 90 | 100 | 100 | 100 | 80 | 100 | 80 | 80 | 90 | 100
9 | COC(=O)c1nc(Cl)cc(NCc2ccncc2)c1Cl [Compound 80-2, 3,6-Dichloro-4-(pyridin-4-ylmethylamino)-pyridine-2-carboxylic acid methyl ester] | 70 | 100 | 20 | 90 | 80 | 100 | 40 | 90 | 60 | 70 | 50 | 100
10 | C=Cc1c(NCc2ncccc2Cl)cc(Cl)nc1C(=O)OC [Compound 32-12, 6-Chloro-4-[(3-chloro-pyridin-2-ylmethyl)-amino]-3-ethenyl-pyridine-2-carboxylic acid methyl ester] | 70 | 100 | 50 | 70 | 80 | 100 | 50 | 100 | 40 | 50 | 60 | 90
11 | COC(=O)c1nc(Cl)c(F)c(NCc2ccccc2[N+](=O)[O-])c1Br [Compound 15-29, 3-bromo-6-chloro-5-fluoro-4-[(2-nitrophenyl-methyl)-amino]-pyridine-2-carboxylic acid methyl ester] | 90 | 90 | 70 | 100 | 40 | 90 | 50 | 100 | 50 | 70 | 80 | 100
